Test results taken from US6676932B2, “Ultraviolet absorbent, photostabilizer, ultraviolet ray-absorbing composition, photostabilized composition and external preparation for skin” (Shiseido Co., Ltd., priority 2001, dated 2004).
Blank lines part the entries; values can stand above or below the compound they belong to.

Key:
Type in all cases: physicochemical
[1] = Drug stabilization effect blended with sequestering agent (Test Examples 372 to 391); set-up: key to Appearance (visual determination): ◯: no change; Δ: almost no change; x: change; details: daylight exposure (80 MJ)
Experimental: Then, the photostabilization effect of the pyridazine derivative in combination with sequestering agents on each drug and the change of the appearance of each composition were examined, by using the following formulation for assessment.
(§1) For observation of the change of the appearance of each test sample (determination based on visual observation) and the measurement of the remaining ratio by liquid chromatography before and after daylight exposure (80 MJ), the test sample was prepared.

[2] = Dye stabilization effect in blend with sequestering agents (Test Examples 212 to 275); details: daylight exposure (80 MJ)
Experimental: Each test sample was prepared for observation of the change of the appearance of each test sample (determined visually) and measurement of the color difference (ΔE) before and after daylight exposure (80 MJ).
(§2) With a spectrophotometer, the color was measured on the Lab coordinate system, to calculate the color difference on the basis of the color before daylight exposure. More specifically, the color difference (ΔE) was calculated on the basis of the measured values (L1, a1, b1) before daylight exposure.

[3] = Stabilization effect on perfume under daylight exposure (Test Examples 92 to 181); set-up: key: ◯: no change; Δ: almost no change; x: change; details: daylight exposure (80 MJ)
Experimental: Each test sample was prepared for observation of the change of the odor of the test sample (determined by perfume coordinator) before and after daylight exposure (80 MJ).

[4] = Dye stabilization effect under daylight exposure (Test Examples 6-91); set-up: key to Δ E: color difference ΔE in Lab vs. color before daylight exposure; key to Appearance (visual determination): ◯: no change; Δ: almost no change; x: change; details: photostabilizer 0.05 wt %, daylight exposure (80 MJ)
Experimental: For observation of the change of the appearance of each test sample (determination based on visual observation) and the measurement of color difference (ΔE) before and after daylight exposure (80 MJ), the test sample was prepared.
as §2

[5] = Drug stabilization effect under daylight exposure (Test Examples 182 to 211); set-up: key to Appearance (visual determination): ◯: no change; Δ: almost no change; x: change; details: photostabilizer 0.05 wt %, daylight exposure (80 MJ); for Remaining ratio (%): liquid chromatography
Experimental: as §1

[6] = base perfume Fruity, photostabilizer 0.1 wt %
[7] = natural perfume Nelori oil, photostabilizer 0.1 wt %
[8] = synthetic perfume Limonene oil, photostabilizer 0.05 wt %
[9] = dye Blue 1 (Brilliant Blue FCF) 0.0001 wt %
[10] = dye Green 3 (Fast Green FCF) 0.001 wt %
[11] = dye Red 227 (Acid Fuchsine D) 0.0001 wt %
[12] = dye Yellow 5 (Sunset Yellow FCF) 0.001 wt %
[13] = dyes Yellow 203 (Quinoline Yellow WS) 0.0001 + Yellow 5 (Sunset Yellow FCF) 0.0001 wt %
[14] = drug L-ascorbic acid 2-glucoside 2.0 wt %
[15] = base perfume Muge, photostabilizer 0.05 wt %
[16] = base perfume Spicy, photostabilizer 0.2 wt %
[17] = natural perfume Jasmine oil, photostabilizer 0.05 wt %
[18] = synthetic perfume Rose oxide, photostabilizer 0.2 wt %
[19] = dyes Red 106 (Acid red) 0.00001 + Yellow 203 (Quinoline Yellow WS) 0.0001 wt %
[20] = drug Dipotassium glycyrrhizinate 0.05 wt %
[21] = dyes Red 213 (Rhodamine B) 0.00001 + Blue 1 (Brilliant Blue FCF) 0.00001 wt %
[22] = dyes Red 227 (Acid Fuchsine D) 0.0001 + Yellow 5 (Sunset Yellow FCF) 0.0001 wt %
[23] = dyes Red 401 (Violanin R) 0.0001 + Blue 1 (Brilliant Blue FCF) 0.00001 wt %
[24] = drug dibutylhydroxytoluene 0.01 wt %
[25] = drug dl-α-tocopherol 2-L-ascorbic acid phosphate diester potassium salt 0.01 wt %
[26] = drug dl-α-tocopherol 2-L-ascorbic acid phosphate diester potassium salt 0.01, sequestering agent blend amount 0.03, photostabilizer 0
[27] = dye Blue 1 (Brilliant Blue FCF) 0.001, sequestering agent 0.05 alone, photostabilizer 0
[28] = dye Red 227 (Acid Fuchsine D) 0.0001, sequestering agent 0.02 alone, photostabilizer 0
[29] = drug Glycyrrhizinic acid dipotassium 0.05, sequestering agent blend amount 0.03, photostabilizer 0
[30] = drug L-ascorbic acid 2-glucoside 2.0, sequestering agent blend amount 0.03, photostabilizer 0
[31] = drug dibutylhydroxy toluene 0.01, sequestering agent blend amount 0.03, photostabilizer 0

Appearance (visual determination) ([1]; drug dibutylhydroxy toluene 0.01, no sequestering agent, photostabilizer blend amount 0.03): Δ | Appearance (visual determination) ([1]; drug dibutylhydroxy toluene 0.01, with sodium metaphosphate 0.03, photostabilizer blend amount 0.03): ◯ | Δ E ([2]; dyes Red 213 (Rhodamine B) 0.00001 + Blue 1 (Brilliant Blue FCF) 0.00001, no sequestering agent, photostabilizer blend amount 0.02): 1.98 | Δ E ([2]; dyes Red 213 (Rhodamine B) 0.00001 + Blue 1 (Brilliant Blue FCF) 0.00001, with ethylenediaminehydroxyethyl trisodium triacetate 0.03, photostabilizer blend amount 0.02): 1.32 | Remaining ratio (%) [5, 14]: 98.5%
Compound: c1cc(N2CCOCC2)nnc1N1CCOCC1 [3,6-Dimorpholinopyridazine]
odor determination [3, 6]: ◯ | odor determination [3, 7]: ◯ | odor determination [3, 8]: ◯ | Appearance (visual determination) [4, 9]: ◯ | Δ E [4, 9]: 1.25 | Appearance (visual determination) [4, 10]: ◯ | Δ E [4, 10]: 0.44 | Appearance (visual determination) [4, 11]: ◯ | Δ E [4, 11]: 0.53 | Appearance (visual determination) [4, 12]: ◯ | Δ E [4, 12]: 0.51 | Appearance (visual determination) [4, 13]: ◯ | Δ E [4, 13]: 0.40 | Appearance (visual determination) [5, 14]: ◯

Δ E ([2]; dyes Red 401 (Violanin R) 0.0001 + Blue 1 (Brilliant Blue FCF) 0.00001, no sequestering agent, photostabilizer blend amount 0.02): 1.34 | Δ E ([2]; dyes Red 401 (Violanin R) 0.0001 + Blue 1 (Brilliant Blue FCF) 0.00001, with ethylenediaminetetraacetate trisodium 0.03, photostabilizer blend amount 0.02): 0.91 | Remaining ratio (%) [5, 20]: 99.2%
Compound: Oc1nnccc1N1CCOCC1 [3-Hydroxy-4-morpholinopyridazine, 3-hydroxy-4-morpholinopyridazine]
odor determination [3, 6]: ◯ | odor determination [3, 15]: ◯ | odor determination [3, 16]: ◯ | odor determination [3, 17]: ◯ | odor determination [3, 18]: ◯ | Appearance (visual determination) [4, 9]: ◯ | Δ E [4, 9]: 1.26 | Appearance (visual determination) [4, 10]: ◯ | Δ E [4, 10]: 0.48 | Appearance (visual determination) [4, 11]: ◯ | Δ E [4, 11]: 0.60 | Appearance (visual determination) [4, 12]: ◯ | Δ E [4, 12]: 0.62 | Appearance (visual determination) [4, 19]: ◯ | Δ E [4, 19]: 0.80 | Appearance (visual determination) [5, 20]: ◯

Remaining ratio (%) [5, 20]: 96.6% | Remaining ratio (%) [5, 14]: 97.0% | Remaining ratio (%) [5, 24]: 95.2% | Remaining ratio (%) [5, 25]: 94.5% | Remaining ratio (%) ([5]; drug salicylic acid 0.1 wt %): 97.2%
Compound: COc1ccc(C(=O)CC(=O)c2ccc(C(C)(C)C)cc2)cc1 [4-tert-Butyl-4′-methoxydibenzoylmethane, reference compound]
odor determination [3, 6]: Δ | odor determination [3, 15]: Δ | odor determination ([3]; base perfume Rose, photostabilizer 0.05 wt %): Δ | odor determination [3, 16]: Δ | odor determination ([3]; base perfume Woody, photostabilizer 0.1 wt %): Δ | odor determination [3, 17]: Δ | odor determination ([3]; natural perfume Lavender oil, photostabilizer 0.1 wt %): Δ | odor determination [3, 7]: Δ | odor determination ([3]; natural perfume Rose oil, photostabilizer 0.05 wt %): Δ | odor determination ([3]; natural perfume Ylang ylang oil, photostabilizer 0.2 wt %): Δ | odor determination ([3]; synthetic perfume Citral, photostabilizer 0.1 wt %): Δ | odor determination [3, 8]: Δ | odor determination ([3]; synthetic perfume Linalool, photostabilizer 0.05 wt %): Δ | odor determination ([3]; synthetic perfume Linalyl acetate, photostabilizer 0.1 wt %): Δ | odor determination [3, 18]: Δ | Appearance (visual determination) [4, 9]: Δ | Δ E [4, 9]: 1.49 | Appearance (visual determination) [4, 10]: Δ | Δ E [4, 10]: 0.62 | Appearance (visual determination) [4, 11]: Δ | Δ E [4, 11]: 0.95 | Appearance (visual determination) [4, 12]: Δ | Δ E [4, 12]: 0.88 | Appearance (visual determination) [4, 19]: Δ | Δ E [4, 19]: 1.02 | Appearance (visual determination) [4, 21]: Δ | Δ E [4, 21]: 1.17 | Appearance (visual determination) [4, 22]: Δ | Δ E [4, 22]: 0.80 | Appearance (visual determination) [4, 23]: Δ | Δ E [4, 23]: 0.93 | Appearance (visual determination) [4, 13]: ◯ | Δ E [4, 13]: 0.48 | Appearance (visual determination) [5, 20]: Δ | Appearance (visual determination) [5, 14]: Δ | Appearance (visual determination) [5, 24]: Δ | Appearance (visual determination) [5, 25]: Δ | Appearance (visual determination) ([5]; drug salicylic acid 0.1 wt %): Δ

Appearance (visual determination) [1, 26]: x | Remaining ratio (%) [1, 26]: 70.1% | Δ E ([2]; dyes Red 106 (Acid Red) 0.00001 + Yellow 203 (Quinoline Yellow WS) 0.0001, sequestering agent blend amount 0.02, photostabilizer 0): 3.56 | Δ E ([2]; dyes Red 213 (Rhodamine B) 0.00001 + Blue 1 (Brilliant Blue FCF) 0.00001, sequestering agent blend amount 0.03, photostabilizer 0): 3.85
Compound: O=C([O-])CN(CCO)CCN(CC(=O)[O-])CC(=O)[O-].[Na+].[Na+].[Na+] [ethylenediaminehydroxyethyl trisodium triacetate]
Δ E [2, 27]: 7.63 | Δ E [2, 28]: 1.43

Appearance (visual determination) [1, 29]: x | Remaining ratio (%) [1, 29]: 85.8% | Appearance (visual determination) [1, 30]: x | Remaining ratio (%) [1, 30]: 85.2% | Appearance (visual determination) [1, 31]: x | Remaining ratio (%) [1, 31]: 54.7% | Δ E ([2]; dyes Red 227 (Acid Fuchsine D) 0.0001 + Yellow 203 (Quinoline Yellow WS) 0.0001, sequestering agent blend amount 0.02, photostabilizer 0): 3.01 | Δ E ([2]; dyes Red 401 (Violanin R) 0.0001 + Green 3 (Fast Green FCF) 0.00001, sequestering agent blend amount 0.03, photostabilizer 0): 4.23 | Δ E ([2]; dyes Yellow 203 (Quinoline Yellow WS) 0.0001 + Yellow 5 (Sunset Yellow FCF) 0.0001, sequestering agent blend amount 0.01, photostabilizer 0): 1.44
Compound: sodium metaphosphate
Δ E [2, 27]: 7.78 | Δ E ([2]; dye Green 3 (Fast Green FCF) 0.001, sequestering agent 0.1 alone, photostabilizer 0): 1.77 | Δ E [2, 28]: 1.37 | Δ E ([2]; dye Yellow 5 (Sunset Yellow FCF) 0.0001, sequestering agent 0.03 alone, photostabilizer 0): 1.68
